Measured values: ChEMBL document CHEMBL1201862, “PubChem BioAssay data set” (2004)
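All cell lines were grown in 96-well plates and treated with compound for 48 hours. Abbreviation: GI50, concentration required for 50% inhibition of growth.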 Active and inactive are the calls of the source. No stated cut-off is given here; in the data, active = GI50 up to about 1.1 µM and inactive = higher.

Tests used:
Assay in all cases: inhibition of tumour cell growth, NCI panel, 48 h
[1] = test system: CAKI-1
[2] = test system: CCRF-CEM
[3] = test system: EKVX
[4] = test system: HCT-116
[5] = test system: HCT-15
[6] = test system: HT-29
[7] = test system: KM12
[8] = test system: MCF7
[9] = test system: NCI-H460
[10] = test system: NCI/ADR-RES
[11] = test system: SK-OV-3
[12] = test system: SW-620
[13] = test system: U-251
[14] = test system: UACC-257
[15] = test system: UACC-62
[16] = test system: HOP-62
[17] = test system: RXF 393
[18] = test system: SF-539
[19] = test system: T47D

Row | Structure (SMILES) | GI50 [1] | GI50 [2] | GI50 [3] | GI50 [4] | GI50 [5] [µM] | GI50 [6] | GI50 [7] | GI50 [8] | GI50 [9] | GI50 [10] | GI50 [11] | GI50 [12] | GI50 [13] | GI50 [14] | GI50 [15] | GI50 [16] | GI50 [17] | GI50 [18] | GI50 [19]
1 | Cc1c2n(c3ccccc13)S(=O)(=O)c1ccccc1-2 | 12.3 µM (inactive) | > 100 µM (inactive) | 6.37 µM (inactive) | 21.2 µM (inactive) | 48.1 | 15.4 µM (inactive) | > 100 µM (inactive) | 28.9 µM (inactive) | 30.5 µM (inactive) | 28.1 µM (inactive) | 14.6 µM (inactive) | > 100 µM (inactive) | 18.4 µM (inactive) | > 100 µM (inactive) | 28.1 µM (inactive) |  |  |  | 
2 | COc1cc(C(=O)C/C(CCCC(=O)Nc2ccccc2[N+](=O)[O-])=N/NC(=O)c2cc3ccccc3cc2O)ccc1O | > 68.9 µM (inactive) | 8 µM (inactive) | 16.5 µM (inactive) | 34.4 µM (inactive) | 20.2 | 41.9 µM (inactive) | 24.5 µM (inactive) |  | 40.6 µM (inactive) |  | 49.7 µM (inactive) | 46.5 µM (inactive) | 52.1 µM (inactive) | 27.7 µM (inactive) | 17.6 µM (inactive) | 94.8 µM (inactive) | > 71 µM (inactive) | 37.9 µM (inactive) | 
3 | Cc1cccc(Cl)c1NC(=O)/C=C/c1ccccc1 | 76.9 µM (inactive) | > 100 µM (inactive) | 49.2 µM (inactive) | 39.4 µM (inactive) | > 100 | 59.3 µM (inactive) | 74.5 µM (inactive) | 32.5 µM (inactive) | 86.3 µM (inactive) |  | 37.3 µM (inactive) | > 100 µM (inactive) | 87.7 µM (inactive) | > 100 µM (inactive) | > 100 µM (inactive) | 74.6 µM (inactive) |  | 44.8 µM (inactive) | 36.7 µM (inactive)
4 | COc1cc(C2SC(=N)Nc3c2c(C)nn3C(=O)Cc2ccccc2)ccc1O (stereo not given) | > 100 µM (inactive) | > 100 µM (inactive) | > 100 µM (inactive) | > 100 µM (inactive) | > 100 | > 100 µM (inactive) | > 100 µM (inactive) | > 100 µM (inactive) | > 100 µM (inactive) |  | > 100 µM (inactive) | > 100 µM (inactive) |  | > 100 µM (inactive) | > 100 µM (inactive) | > 100 µM (inactive) |  | > 100 µM (inactive) | > 100 µM (inactive)
5 | Cc1cccc(C)c1NC(=O)/C=C/c1ccccc1 | > 100 µM (inactive) | > 100 µM (inactive) | 67 µM (inactive) | > 100 µM (inactive) | > 100 | > 100 µM (inactive) | > 100 µM (inactive) | > 100 µM (inactive) | > 100 µM (inactive) |  | > 100 µM (inactive) | > 100 µM (inactive) | > 100 µM (inactive) | > 100 µM (inactive) | > 100 µM (inactive) | 50.1 µM (inactive) |  | > 100 µM (inactive) | > 100 µM (inactive)
6 | O=C(Nc1ccccc1)c1cc2ccccc2c(/N=N/c2ccc([N+](=O)[O-])cc2)c1O | > 100 µM (inactive) | 4.85 µM (inactive) | > 100 µM (inactive) | > 100 µM (inactive) | > 100 | > 100 µM (inactive) | > 100 µM (inactive) |  |  | > 100 µM (inactive) | 81.8 µM (inactive) | > 100 µM (inactive) | 31.4 µM (inactive) | > 100 µM (inactive) | 65.2 µM (inactive) | 30.6 µM (inactive) | 82.4 µM (inactive) |  | > 100 µM (inactive)
7 | C=CCC(SC)C1=C(C)C(=O)c2ccccc21 (stereo not given) |  | 6.55 µM (inactive) | > 10 µM (inactive) |  | > 10 | > 10 µM (inactive) | > 10 µM (inactive) | > 10 µM (inactive) | > 10 µM (inactive) |  | > 10 µM (inactive) | > 10 µM (inactive) | > 10 µM (inactive) | > 10 µM (inactive) | > 10 µM (inactive) | > 10 µM (inactive) | > 10 µM (inactive) | > 10 µM (inactive) | > 10 µM (inactive)
8 | Cc1cc(N(CCC#N)CCC#N)ccc1/C=C(\N=[N+]=[N-])C(=O)NC(=O)COc1ccccc1 | > 100 µM (inactive) | > 100 µM (inactive) | > 100 µM (inactive) | > 100 µM (inactive) | > 100 | > 100 µM (inactive) | > 100 µM (inactive) |  | > 100 µM (inactive) |  | > 100 µM (inactive) | > 100 µM (inactive) | > 67.8 µM (inactive) | > 100 µM (inactive) | > 100 µM (inactive) | > 100 µM (inactive) | > 46.3 µM (inactive) | > 67.1 µM (inactive) | 
9 | O=c1c2ccccc2nc(N/N=C/c2ccccc2O)n1-c1ccccc1 | 5.62 µM (inactive) | 3.27 µM (inactive) |  | 2.88 µM (inactive) | 2.97 | 4.55 µM (inactive) |  | 3.33 µM (inactive) | 4.01 µM (inactive) | 2.27 µM (inactive) | 13.8 µM (inactive) | 5.75 µM (inactive) | 5.2 µM (inactive) | 5.04 µM (inactive) | 2.77 µM (inactive) | 5.25 µM (inactive) | 17.1 µM (inactive) | 5.31 µM (inactive) | 
10 | Nc1ncnc2c1nc(O)n2-c1ccccc1 | 78.9 µM (inactive) |  | 93.8 µM (inactive) | > 100 µM (inactive) | > 100 | > 100 µM (inactive) |  | > 100 µM (inactive) | > 100 µM (inactive) | > 100 µM (inactive) | > 100 µM (inactive) | > 100 µM (inactive) |  | > 100 µM (inactive) | > 100 µM (inactive) | > 100 µM (inactive) |  | > 100 µM (inactive) | 
11 | CC1(C)CC(=O)C2=C(C1)NC1=C(C2)C(=O)CC(C)(C)C1 | > 100 µM (inactive) | > 100 µM (inactive) | > 100 µM (inactive) | > 100 µM (inactive) | > 100 | > 100 µM (inactive) | > 100 µM (inactive) | > 100 µM (inactive) | > 100 µM (inactive) | > 100 µM (inactive) | > 100 µM (inactive) | > 100 µM (inactive) | > 100 µM (inactive) | > 100 µM (inactive) | > 100 µM (inactive) | > 100 µM (inactive) | > 100 µM (inactive) | > 100 µM (inactive) | 
12 | C(=N\c1ccc(-c2nc3ccccc3s2)cc1)/c1ccc[nH]1 | 22.8 µM (inactive) | 21.7 µM (inactive) | 17.2 µM (inactive) | 16.1 µM (inactive) | 13.6 | 19.8 µM (inactive) | 20.2 µM (inactive) |  | 17.1 µM (inactive) | 13.3 µM (inactive) | 17.7 µM (inactive) | 22.4 µM (inactive) | 14.4 µM (inactive) | 17.1 µM (inactive) | 15.6 µM (inactive) | 12.5 µM (inactive) | 16 µM (inactive) | 17.6 µM (inactive) | 13.4 µM (inactive)
13 | O=C(/C=C\c1ccccc1)Oc1ccc(/C=C2\CCC/C(=C\c3ccc(OC(=O)/C=C\c4ccccc4)cc3)C2=O)cc1 | > 100 µM (inactive) | > 100 µM (inactive) | > 100 µM (inactive) | > 100 µM (inactive) | > 100 | > 100 µM (inactive) | > 100 µM (inactive) | > 100 µM (inactive) | > 100 µM (inactive) | > 100 µM (inactive) |  | > 100 µM (inactive) | > 100 µM (inactive) | > 100 µM (inactive) | > 100 µM (inactive) | > 100 µM (inactive) |  | > 100 µM (inactive) | > 100 µM (inactive)
14 | S=c1nc(Nc2ccc(Cl)cc2)c2c3c(sc2[nH]1)CCCC3 | > 100 µM (inactive) | 36.2 µM (inactive) | > 100 µM (inactive) | > 100 µM (inactive) | > 100 | > 100 µM (inactive) | > 100 µM (inactive) | 90.2 µM (inactive) | > 100 µM (inactive) |  | > 100 µM (inactive) | > 100 µM (inactive) | > 100 µM (inactive) | > 100 µM (inactive) | > 100 µM (inactive) | > 100 µM (inactive) | > 100 µM (inactive) |  | 
15 | CC1=NN(C(=O)CSc2nnc(SCC(=O)N3N=C(C)CC3(O)c3ccccc3)s2)C(O)(c2ccccc2)C1 (stereo not given) | 45.8 µM (inactive) | 18.7 µM (inactive) | 27 µM (inactive) | 30.9 µM (inactive) | 33.2 |  | 26.7 µM (inactive) | 35.1 µM (inactive) | 27.6 µM (inactive) | 27.9 µM (inactive) | > 100 µM (inactive) | > 100 µM (inactive) | > 100 µM (inactive) | 43.8 µM (inactive) | 18.6 µM (inactive) | 51.3 µM (inactive) | 24.9 µM (inactive) |  | 
16 | COc1cc(OC(C)=O)cc2c(OC(C)=O)ccc(OC(C)=O)c12 | > 100 µM (inactive) | 74.8 µM (inactive) | > 100 µM (inactive) | > 100 µM (inactive) | > 100 | > 100 µM (inactive) | > 100 µM (inactive) |  | > 100 µM (inactive) |  |  | > 100 µM (inactive) | > 100 µM (inactive) | > 100 µM (inactive) | > 100 µM (inactive) | > 100 µM (inactive) | > 100 µM (inactive) |  | 
17 | c1ccc(/N=C(\N2CCCC2)N(CCN2CCCC2)c2ccccc2)cc1 | 53.5 µM (inactive) | 5.93 µM (inactive) | 73.3 µM (inactive) | 1.83 µM (inactive) | 22.1 | 1.84 µM (inactive) | 11 µM (inactive) | 13.5 µM (inactive) | 10.3 µM (inactive) | 37 µM (inactive) | 63.4 µM (inactive) | 11.4 µM (inactive) | 29.9 µM (inactive) | 21 µM (inactive) | 16.6 µM (inactive) | 9.79 µM (inactive) |  |  | 28.8 µM (inactive)
